According to patent US5686459A, “Dioxopyrrolo pyrrole derivatives” (Hoffmann-La Roche Inc., priority 1995, dated 1997):
Counter-ions that a name gives are not always drawn. One block for each compound: values may come before it.

Tests used:
Format in all cases: biochemical
thrombin [1] = target: T1, thrombin (Homo sapiens, UniProt P00734); assay: inhibition of the amidolytic activity of thrombin (chromogenic substrate H-D-Phe-Pip-Arg-paranitroaniline); details: substrate 10 or 50 μM; thrombin 0.5 nM final conc.; pH 7.8; room temperature
Protocol: The measurements were carried out on microtitre plates at room temperature. For this, in each well of the plate […] of buffer (50 mM Tris, 100 mM NaCl, 0.1% polyethylene glycol; pH 7.8) were mixed with […] of the inhibitor dissolved in DMSO and diluted in the buffer and […] of human thrombin (0.5 nM final conc.). After incubation for 10 minutes the reaction was started by the addition of the chromogenic substrate H-D-Phe-Pip-Arg-paranitroaniline (10 or 50 μM final concentration), in which Pip represents the characterizing group 2-piperidylenecarbonyl of the α-aminoacid H-Pip-OH, which is (S)-piperidine-2-carboxylic acid (or L-homoproline). The hydrolysis of the substrate was followed spectrophotometrically on a kinetic microtitre plate reader for 5 minutes.

Factor Xa = Factor Xa (Homo sapiens, UniProt P00742); assay: inhibition of the amidolytic activity of Factor Xa (chromogenic substrate Bz-Ile-Glu-Gly-Arg-paranitroaniline); details: substrate 167 μM final concentration
Factor Xa, sequence (P00742 235-488 limits assumed): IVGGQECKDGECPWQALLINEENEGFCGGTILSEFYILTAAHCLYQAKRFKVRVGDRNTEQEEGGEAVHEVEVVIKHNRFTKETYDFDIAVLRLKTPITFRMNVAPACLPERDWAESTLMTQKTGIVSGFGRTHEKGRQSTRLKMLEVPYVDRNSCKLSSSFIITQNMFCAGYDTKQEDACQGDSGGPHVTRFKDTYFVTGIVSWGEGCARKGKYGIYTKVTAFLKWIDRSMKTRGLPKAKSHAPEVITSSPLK
Factor Xa, sequence (P00742 41-179 partner limits assumed): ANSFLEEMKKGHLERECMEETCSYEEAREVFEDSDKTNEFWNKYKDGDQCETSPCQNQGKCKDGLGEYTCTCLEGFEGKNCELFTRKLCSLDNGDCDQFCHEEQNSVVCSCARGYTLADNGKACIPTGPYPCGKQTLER

thrombin [2] = target: T1, thrombin; assay: thrombin test of crude products (chromogenic substrate S-2238, 405 nm); details: crude product
Protocol: 5 g (1.5 mmol) of Fmoc-TGR resin according to H. Rink Tetrahedron Lett. 28, 3787 (1987) were shaken for 30 minutes. with a 20% solution of piperidine in DMF. Subsequently, the resin was washed with DMF. 1.19 g (3 mmol) of Fmoc-arginine, 950 mg (6 mmol) of 1-hydroxy-benzotriazole (HOBT--containing about 20% water), 570 mg of diisopropylcarbodiimide and DMF were added and the mixture was shaken for 1 hour. The resin was washed with DMF and shaken for 30 minutes with a 20% solution of piperidine in DMF. Thereafter, it was washed with DMF, isopropanol, water and methanol. Subsequently, the resin was distributed in equal portions in 30 reaction vessels, then 0.5 mmol of a carbonyl compound (a. paraformaldehyde, b. pivalaldehyde, c. benzaldehye, d. benzophenone and e. phenylpropionaldehyde) were added to in each case 6 of these vessels, whereafter to each 0.5 mmol of a maleimide (maleimide, N-methyl-, N-butyl-, N-cyclohexylmethyl-, N-phenyl- or N-benzyl-maleimide) was added such that each vessel contains a different pairing of carbonyl compound and maleimide. About 5 ml of a mixture of 150 ml of methanol and 8 ml of acetic acid were added to each vessel as the solvent and the batch was heated under reflux for 22 hours. After cooling the solvent was sucked off and the resin was washed in each case twice with dimethyl sulfoxide, isopropanol, water and isopropanol. The resin was then treated with in each case about 5 ml of a mixture of 40% trifluoroacetic acid, 50% dichloromethane, 5% water and 5% isopropanol and shaken for 2 hours. After filtration the 30 filtrate solutions were concentrated. 30 crude products were thus obtained as yellow oils. For mass spectroscopic and HPLC investigations about 0.5 mg of each oil was removed and taken up in […].

SMILES: C[C@H]1[C@@H]2C(=O)N(Cc3ccccc3)C(=O)[C@@H]2[C@H](c2ccc(C(=N)N)cc2)N1C (racemic) [4.A)a), (1RS,3SR,3aRS,6aSR)-4-(5-Benzyl-2,3-dimethyl-4,6-dioxo-octahydro-pyrrolo[3,4-c]pyrrol-1-yl)-benzimidamide hydrochloride]
Ki (thrombin [1]): 670 nM

SMILES: N=C(N)c1ccc([C@@H]2[C@@H]3C(=O)N(Cc4ccc5c(c4)OCO5)C(=O)[C@@H]3[C@H]3CCCN32)cc1 (racemic) [4.A)g), (3aRS,4SR,8aRS,8bSR)-4-[2-(Benzo[1,3]dioxol-5-ylmethyl)-1,3-dioxo-decahydro-pyrrolo[3,4-a]pyrrolizin-4-yl]-benzimidamide hydrochloride]
Ki (thrombin [1]): 90 nM

SMILES: N=C(N)c1ccc([C@@H]2[C@@H]3C(=O)N(CC4CCCCC4)C(=O)[C@@H]3[C@H]3CCCN32)cc1 (racemic) [7.A)g), (3aRS,4SR,8aRS,8bSR)-4-(2-Cyclohexylmethyl-1,3-dioxo-decahydro-pyrrolo[3,4-a]pyrrolizin-4-yl)-benzimidamide hydrochloride]
Ki (thrombin [1]): 350 nM

SMILES: N=C(N)c1ccc([C@H]2[C@H]3C(=O)N(Cc4ccc5c(c4)OCO5)C(=O)[C@H]3[C@@H]3CSCN32)cc1 (racemic) [Example 7.A)i), (5RS,5aSR,8aRS,8bRS)-4-[7-(Benzo[1,3]dioxol-5-ylmethyl)-6,8-dioxo-octahydro-pyrrolo[3',4':3,4]pyrrolo[1,2-c]thiazol-5-yl]-benzimidamide hydrochloride]
Ki (thrombin [1]): 440 nM

SMILES: CCCCN1C(=O)[C@@H]2[C@H](C1=O)[C@H]1CCCN1[C@@H]2c1ccc(NC(=N)N)cc1 (racemic) [Example 9, (3aRS,4SR,8aRS, 8bSR)-N-[4-(2-Butyl-1,3-dioxo-decahydro-pyrrolo[3,4-a]pyrrolizin-4-yl)-phenyl]-guanidinium nitrate]
Ki (thrombin [1]): 110 nM

SMILES: N=C(N)c1ccc([C@@H]2N[C@](COCc3ccccc3)(C(=O)O)[C@@H]3C(=O)N(Cc4ccc([N+](=O)[O-])cc4)C(=O)[C@@H]32)cc1 (racemic) [Example 18, (1RS,3RS,3aSR,6aRS)-1-(benzyloxy-methyl)-3-(4-carbamimidoyl-phenyl)-5-(4-nitro-benzyl)-4,6-dioxo-octahydro-pyrrolo[3,4-c]pyrrole-1-carboxylic acid hydrochloride]
Ki (Factor Xa): 98 nM

SMILES: CSCCC1(C(=O)O)NC(c2ccc(C(=N)N)cc2)C2C(=O)N(CC3CCCCC3)C(=O)C21 (stereo not drawn) [Example 13 n), 5-cyclohexylmethyl-1-(2-methylsulfanyl-ethyl)-3-(4-carbamimidoyl-phenyl)-4,6-dioxo-octahydro-pyrrolo[3,4-c]pyrrole-1-carboxylic acid]
inhibitory activity in the thrombin test (thrombin [2]; among the named cycloadducts of Example 13): greatest inhibitory activity

SMILES: N=C(N)c1ccc(C2C3C(=O)N(c4ccccc4)C(=O)C3C(CO)(C(=O)O)N2CCC(N)=O)cc1 (stereo not drawn) [Example 14 p), 3-hydroxymethyl-5-phenyl-1-(4-carbamimidoyl-phenyl)-2-(2-carbamoyl-ethyl)-4,6-dioxo-octahydro-pyrrolo[3,4-c]pyrrole-3-carboxylic acid]
inhibitory activity (determined according to Example 12) (thrombin [2]; among the products of Example 14): highest inhibitory activity

Other lines, results leading:

Ki (Factor Xa): 76 nM
SMILES: N=C(N)c1ccc([C@@H]2N[C@](COCc3ccccc3)(C(=O)O)[C@@H]3C(=O)N(Cc4ccc(N)cc4)C(=O)[C@@H]32)cc1 (racemic) [Example 19, (1RS,3RS,3aSR,6aRS)-5-(4-amino-benzyl)-1-(benzyloxy-methyl)-3-(4-carbamimidoyl-phenyl)-4,6-dioxo-octahydro-pyrrolo[3,4-c]pyrrole-1-carboxylic acid hydrochloride]

Ki (thrombin [1]): 670 nM
SMILES: N=C(N)c1ccc([C@@H]2[C@@H]3C(=O)N(Cc4ccccc4)C(=O)[C@@H]3[C@H]3C[C@H](O)CN32)cc1 [7.A)o), (3aR,4S,7S,8aR,8bS)-4-(2-Benzyl-7-hydroxy-1,3-dioxo-decahydro-pyrrolo[3,4-a]pyrrolizin-4-yl)-benzimidamide hydrochloride]

inhibitory activity in the thrombin test (thrombin [2]; among the named cycloadducts of Example 12): greatest inhibitory activity
SMILES: N=C(N)NCCCC1(C(N)=O)NC(c2ccccc2)C2C(=O)N(c3ccccc3)C(=O)C21 (stereo not drawn) [Example 12 m), 3,5-diphenyl-1-(3-guanidino-propyl)-4,6-dioxo-octahydro-pyrrolo[3,4-c]pyrrole-1-carboxamide]

inhibitory activity in the thrombin test (thrombin [2]; among the 20 crude products of Example 15): highest inhibitory activity
SMILES: N=C(N)c1ccc(C2C3C(=O)N(C(Cc4ccccc4)C(N)=O)C(=O)C3C3CCCN32)cc1 (stereo not drawn) [Example 15]
